Assay results: ChEMBL document CHEMBL1122963, “[3H]Batrachotoxinin A 20 alpha-benzoate binding to voltage-sensitive sodium channels: a rapid and quantitative assay for local anesthetic activity in a variety of drugs” (J Med Chem, 1985)

Legend:
[1] = target: T1, Sodium channel alpha subunits; brain (Types I, II, III) (Homo sapiens, UniProt P35498+Q99250+Q9NY46); conditions: Cavia porcellus; Cerebral cortex; at 10 µM
[2] = target: T1, Sodium channel alpha subunits; brain (Types I, II, III); conditions: Cavia porcellus; Cerebral cortex; at 100 µM
[3] = target: T1, Sodium channel alpha subunits; brain (Types I, II, III); assay: Inhibition of binding of Batrachotoxinin [3H]BTX-B to high affinity sites on voltage dependent sodium channels in a vesicular preparation from guinea pig cerebral cortex; type: tissue-based, Cavia porcellus

T1 sequence (Q99250 whole entry, looked up, other chains not shown): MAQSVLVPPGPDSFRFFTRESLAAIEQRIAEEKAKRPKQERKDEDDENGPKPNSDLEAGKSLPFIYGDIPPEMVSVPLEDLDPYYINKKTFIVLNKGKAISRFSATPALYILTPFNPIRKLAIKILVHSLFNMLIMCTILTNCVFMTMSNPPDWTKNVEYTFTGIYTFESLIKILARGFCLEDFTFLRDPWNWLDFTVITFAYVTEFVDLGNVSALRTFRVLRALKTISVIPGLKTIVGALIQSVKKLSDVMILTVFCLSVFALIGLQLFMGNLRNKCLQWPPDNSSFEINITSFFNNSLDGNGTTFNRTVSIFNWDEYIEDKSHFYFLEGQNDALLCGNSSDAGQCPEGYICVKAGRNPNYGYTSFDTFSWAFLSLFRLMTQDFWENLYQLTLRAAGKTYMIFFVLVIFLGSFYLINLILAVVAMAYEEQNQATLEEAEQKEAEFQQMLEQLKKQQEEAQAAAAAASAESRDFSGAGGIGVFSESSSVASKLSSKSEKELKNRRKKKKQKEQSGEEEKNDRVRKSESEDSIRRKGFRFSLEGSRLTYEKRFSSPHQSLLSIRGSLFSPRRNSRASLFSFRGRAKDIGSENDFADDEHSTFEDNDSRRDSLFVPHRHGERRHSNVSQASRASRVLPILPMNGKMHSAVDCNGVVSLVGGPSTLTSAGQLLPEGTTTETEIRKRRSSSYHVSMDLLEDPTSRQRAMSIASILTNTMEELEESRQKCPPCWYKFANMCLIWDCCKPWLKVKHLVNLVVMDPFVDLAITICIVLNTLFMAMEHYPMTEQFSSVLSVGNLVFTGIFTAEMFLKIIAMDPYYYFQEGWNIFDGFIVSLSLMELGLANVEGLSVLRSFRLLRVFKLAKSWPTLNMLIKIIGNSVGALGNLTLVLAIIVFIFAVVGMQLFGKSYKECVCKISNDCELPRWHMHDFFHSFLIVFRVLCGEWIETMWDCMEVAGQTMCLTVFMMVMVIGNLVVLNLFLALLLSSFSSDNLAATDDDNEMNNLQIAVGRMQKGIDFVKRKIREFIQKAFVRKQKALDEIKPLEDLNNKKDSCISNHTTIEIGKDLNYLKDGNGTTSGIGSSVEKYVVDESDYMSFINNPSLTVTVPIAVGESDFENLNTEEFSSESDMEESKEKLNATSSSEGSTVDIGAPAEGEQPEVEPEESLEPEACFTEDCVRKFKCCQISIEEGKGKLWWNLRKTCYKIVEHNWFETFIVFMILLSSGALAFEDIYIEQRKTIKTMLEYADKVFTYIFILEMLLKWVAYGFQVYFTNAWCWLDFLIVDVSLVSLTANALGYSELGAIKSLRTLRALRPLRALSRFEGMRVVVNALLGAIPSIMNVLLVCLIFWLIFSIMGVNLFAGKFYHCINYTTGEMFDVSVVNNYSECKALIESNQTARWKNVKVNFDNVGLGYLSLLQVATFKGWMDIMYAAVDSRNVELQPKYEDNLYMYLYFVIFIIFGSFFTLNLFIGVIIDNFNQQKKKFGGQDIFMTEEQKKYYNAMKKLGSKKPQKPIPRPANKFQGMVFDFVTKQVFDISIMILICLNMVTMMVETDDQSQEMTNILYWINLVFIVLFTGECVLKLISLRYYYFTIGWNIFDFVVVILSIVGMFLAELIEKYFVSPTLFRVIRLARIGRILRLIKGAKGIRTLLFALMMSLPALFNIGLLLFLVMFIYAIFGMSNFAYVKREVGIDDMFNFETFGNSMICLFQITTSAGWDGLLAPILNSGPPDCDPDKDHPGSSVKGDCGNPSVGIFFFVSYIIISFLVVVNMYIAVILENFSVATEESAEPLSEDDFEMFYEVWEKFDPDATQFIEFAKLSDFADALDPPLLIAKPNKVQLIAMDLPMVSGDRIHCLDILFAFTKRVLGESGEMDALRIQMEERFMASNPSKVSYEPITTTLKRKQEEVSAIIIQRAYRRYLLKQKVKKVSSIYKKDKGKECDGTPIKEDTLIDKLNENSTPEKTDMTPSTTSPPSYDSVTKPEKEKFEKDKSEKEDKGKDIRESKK
T1 sequence (Q9NY46 whole entry, looked up, other chains not shown): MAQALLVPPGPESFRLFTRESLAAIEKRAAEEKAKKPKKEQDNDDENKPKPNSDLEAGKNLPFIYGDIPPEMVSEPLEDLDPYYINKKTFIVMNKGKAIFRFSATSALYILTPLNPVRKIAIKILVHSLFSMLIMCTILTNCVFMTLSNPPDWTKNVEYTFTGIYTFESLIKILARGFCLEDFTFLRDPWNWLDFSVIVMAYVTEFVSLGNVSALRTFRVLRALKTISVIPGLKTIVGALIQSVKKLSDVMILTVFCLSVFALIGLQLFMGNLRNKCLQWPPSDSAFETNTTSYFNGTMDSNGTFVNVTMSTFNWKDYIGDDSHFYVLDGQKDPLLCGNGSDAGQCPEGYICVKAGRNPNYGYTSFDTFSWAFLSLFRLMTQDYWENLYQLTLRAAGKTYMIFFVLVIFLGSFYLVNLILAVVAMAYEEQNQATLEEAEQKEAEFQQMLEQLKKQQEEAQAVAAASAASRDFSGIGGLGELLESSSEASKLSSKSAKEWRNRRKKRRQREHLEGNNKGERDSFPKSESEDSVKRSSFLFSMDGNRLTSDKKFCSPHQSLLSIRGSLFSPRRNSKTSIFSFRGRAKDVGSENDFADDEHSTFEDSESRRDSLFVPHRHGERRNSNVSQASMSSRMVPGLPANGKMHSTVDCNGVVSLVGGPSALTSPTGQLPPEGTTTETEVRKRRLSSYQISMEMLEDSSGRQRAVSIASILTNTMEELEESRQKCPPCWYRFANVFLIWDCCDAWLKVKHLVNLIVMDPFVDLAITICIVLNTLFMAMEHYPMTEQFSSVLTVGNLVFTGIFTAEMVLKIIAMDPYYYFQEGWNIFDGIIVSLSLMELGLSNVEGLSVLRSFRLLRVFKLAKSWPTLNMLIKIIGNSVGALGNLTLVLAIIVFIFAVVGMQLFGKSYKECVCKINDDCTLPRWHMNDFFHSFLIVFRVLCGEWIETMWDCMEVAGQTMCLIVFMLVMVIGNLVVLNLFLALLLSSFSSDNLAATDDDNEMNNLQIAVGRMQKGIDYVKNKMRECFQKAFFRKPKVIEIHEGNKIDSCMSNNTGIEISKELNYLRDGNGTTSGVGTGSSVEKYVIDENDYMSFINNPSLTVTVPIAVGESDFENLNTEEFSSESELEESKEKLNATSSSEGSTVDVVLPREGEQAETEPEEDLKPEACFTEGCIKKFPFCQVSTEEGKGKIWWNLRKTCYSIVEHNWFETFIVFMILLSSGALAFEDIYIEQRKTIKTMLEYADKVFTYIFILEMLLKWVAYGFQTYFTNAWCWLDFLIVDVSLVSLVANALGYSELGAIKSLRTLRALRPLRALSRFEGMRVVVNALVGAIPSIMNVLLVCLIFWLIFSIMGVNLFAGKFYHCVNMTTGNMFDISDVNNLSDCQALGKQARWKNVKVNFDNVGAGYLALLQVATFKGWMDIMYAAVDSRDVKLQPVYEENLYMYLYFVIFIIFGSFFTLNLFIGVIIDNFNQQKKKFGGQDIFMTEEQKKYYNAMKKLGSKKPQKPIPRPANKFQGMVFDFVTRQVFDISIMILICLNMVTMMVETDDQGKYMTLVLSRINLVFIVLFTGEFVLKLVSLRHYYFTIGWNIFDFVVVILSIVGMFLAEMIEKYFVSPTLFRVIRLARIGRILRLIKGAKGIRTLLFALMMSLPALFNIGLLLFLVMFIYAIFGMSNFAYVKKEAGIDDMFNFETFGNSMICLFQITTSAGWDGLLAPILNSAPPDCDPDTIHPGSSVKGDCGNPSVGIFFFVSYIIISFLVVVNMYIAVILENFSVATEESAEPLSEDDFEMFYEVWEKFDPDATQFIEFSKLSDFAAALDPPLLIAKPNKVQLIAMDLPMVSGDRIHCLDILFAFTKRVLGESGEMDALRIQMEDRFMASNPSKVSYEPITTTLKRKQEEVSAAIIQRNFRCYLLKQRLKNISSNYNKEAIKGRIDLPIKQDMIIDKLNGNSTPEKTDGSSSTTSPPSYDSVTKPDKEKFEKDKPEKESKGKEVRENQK

Q: What does the source list for Cc1cccc(C)c1NC(=O)C1CCCCN1C (configuration not stated)?
A: inhibition [1]: 5.3%; inhibition [2]: 29.3%

Q: CC(C)CNCCOC(=O)c1ccc(N)cc1 [BUTETHAMINE] was tested. Which IC50 [3] did it give?
A: Its IC50 is 55 µM.

Q: And the inhibition [1]?
A: The inhibition was 12.3%.

Q: And the inhibition [2]?
A: The inhibition was 63.2%.

Q: With CCCNC(C)C(=O)Nc1c(C)csc1C(=O)OC (configuration not stated) [ARTICAINE] as the molecule, how does the inhibition [1] read?
A: Its inhibition is 17.1%.

Q: And the inhibition [2]?
A: The inhibition was 62.2%.

Q: COc1ccc(C2C(=O)c3ccccc3C2=O)cc1 was tested. Which inhibition [1] did it give?
A: Its inhibition is 1.3%.

Q: What about the inhibition [2] of the same molecule?
A: Its inhibition is 0%.

Q: With COc1ccc(CN(CCN(C)C)c2nccs2)cc1 [ZOLAMINE] as the molecule, how does the IC50 [3] read?
A: The IC50 was 19.2 µM.

Q: And the inhibition [1]?
A: Its inhibition is 35.9%.

Q: What about the inhibition [2] of the same molecule?
A: The inhibition was 82.4%.

Q: With CN1CC[C@]23c4c5ccc(O)c4O[C@H]2[C@@H](O)C=C[C@H]3[C@H]1C5 as the molecule, how does the inhibition [2] read?
A: The inhibition was 5.3%.

Q: CC[C@@H](CO)NC(=O)[C@@H]1C=C2c3cccc4c3c(cn4C)C[C@H]2N(C)C1 was tested. Which inhibition [2] did it give?
A: Its inhibition is 17.8%.

Q: Which results are given for COc1ccc2c(c1)c(CC(=O)O)c(C)n2C(=O)c1ccc(Cl)cc1?
A: inhibition [1]: 3.3%; inhibition [2]: 11.2%

Q: What does the source list for CN(C)CCCN1c2ccccc2[S+]([O-])c2ccc(Cl)cc21 (configuration not stated)?
A: inhibition [1]: 18%; inhibition [2]: 69.1%

Q: Which results are given for C=C[C@@]1(C)CC(=O)[C@]2(O)[C@@]3(C)[C@@H](O)CCC(C)(C)[C@@H]3[C@H](O)[C@H](OC(C)=O)[C@@]2(C)O1 [COLFORSIN]?
A: IC50 [3]: 60 µM; inhibition [2]: 62.8%

Q: For COc1ccc(Cc2nccc3cc(OC)c(OC)cc23)cc1OC, which inhibition [1] is on record?
A: The inhibition was 11%.

Q: And the inhibition [2]?
A: Its inhibition is 56%.

Q: For CC(C)NCC(O)c1ccc(NS(C)(=O)=O)cc1 (configuration not stated), which inhibition [2] is on record?
A: Its inhibition is 4.6%.

Q: What does the source list for CCN(CC)CCNC(=O)c1ccc(N)cc1?
A: inhibition [1]: 7.8%; inhibition [2]: 22.5%

Q: How did the inhibition [2] turn out when C[C@@H]1O[C@H](n2cnc3c(N)ncnc32)C[C@H]1O was run?
A: The inhibition was 3.5%.

Q: Which results are given for CCN(CC)CC(=O)Nc1c(C)cccc1C?
A: inhibition [1]: 9.8%; inhibition [2]: 31.4%

Q: How did the inhibition [1] turn out when CCN(CC)CCCCCCCCOC(=O)c1cc(C)c(C)c(C)c1 was run?
A: Its inhibition is 3.4%.

Q: And the inhibition [2]?
A: The inhibition was 21.6%.

Q: How did the inhibition [1] turn out when CN1C(=O)CN=C(c2ccccc2)c2cc(Cl)ccc21 was run?
A: The inhibition was 15.2%.

Q: What about the inhibition [2] of the same molecule?
A: The inhibition was 45.4%.

Q: Which inhibition [1] does the source give for CCCCOC(=O)c1ccc(N)cc1 here?
A: Its inhibition is 7%.

Q: What about the inhibition [2] of the same molecule?
A: Its inhibition is 36.8%.

Q: Which results are given for COc1ccc(C2CNC(=O)C2)cc1OC1CCCC1 (configuration not stated)?
A: inhibition [1]: 3.1%; inhibition [2]: 8.5%

Q: For C[C@]12CC[C@@H]3c4ccc(O)cc4CC[C@H]3[C@@H]1CC[C@@H]2O, which inhibition [1] is on record?
A: The inhibition was 17.8%.

Q: And the inhibition [2]?
A: The inhibition was 53.3%.

Q: CN1CCc2cc3c(cc2[C@H]1[C@@H]1OC(=O)c2c1ccc1c2OCO1)OCO3 was tested. Which inhibition [2] did it give?
A: Its inhibition is 1.8%.

Q: What does the source list for CN/C(=N\CCSCc1nc[nH]c1C)NC#N?
A: inhibition [1]: 0%; inhibition [2]: 4.1%

Q: What does the source list for CCOC(=O)c1cnc2c(cnn2CC)c1NN=C(C)C?
A: inhibition [1]: 8.3%; inhibition [2]: 20.1%

Q: Which IC50 [3] does the source give for N=C1CCCCCCCCCCCN1C1CCCC1c1ccccc1 (configuration not stated) here?
A: Its IC50 is 0.8 µM.

Q: What about the inhibition [2] of the same molecule?
A: The inhibition was 100%.

Q: Which inhibition [1] does the source give for Nc1nc(Cl)nc2c1ncn2[C@@H]1O[C@H](CO)[C@@H](O)[C@H]1O here?
A: The inhibition was 1.3%.

Q: What about the inhibition [2] of the same molecule?
A: The inhibition was 3.5%.

Q: Cn1c(=O)c2nc(-c3ccc(S(=O)(=O)O)cc3)[nH]c2n(C)c1=O was tested. Which inhibition [1] did it give?
A: The inhibition was 1.6%.

Q: What about the inhibition [2] of the same molecule?
A: The inhibition was 2.9%.

Q: With CCCC(C)C1(CC)C(=O)NC(=O)NC1=O (configuration not stated) as the molecule, how does the inhibition [1] read?
A: Its inhibition is 1.2%.

Q: And the inhibition [2]?
A: Its inhibition is 7.6%.

Q: How did the inhibition [1] turn out when Nc1ccncc1 was run?
A: Its inhibition is 1.2%.

Q: What about the inhibition [2] of the same molecule?
A: The inhibition was 3.8%.

Q: How did the inhibition [1] turn out when O=c1n(CCCN2CCN(c3cccc(Cl)c3)CC2)nc2ccccn12 was run?
A: Its inhibition is 26.2%.

Q: What about the inhibition [2] of the same molecule?
A: Its inhibition is 79.6%.

Q: For CNC1=Nc2ccc(Cl)cc2C(c2ccccc2)=[N+]([O-])C1, which inhibition [1] is on record?
A: Its inhibition is 4.4%.

Q: And the inhibition [2]?
A: Its inhibition is 35%.

Q: What does the source list for c1ccc2c(c1)OCC(CN1CCCCC1)O2 (configuration not stated) [PIPEROXAN]?
A: IC50 [3]: 61 µM; inhibition [2]: 58.8%

Q: Which IC50 [3] does the source give for CN(C)CCCN1c2ccccc2Sc2ccc(Cl)cc21 [CHLORPROMAZINE] here?
A: Its IC50 is 4.3 µM.

Q: What about the inhibition [1] of the same molecule?
A: Its inhibition is 72.2%.

Q: Cl.NCCCCCCNS(=O)(=O)c1cccc2c(Cl)cccc12 [N-AMINOHEXYL-5-CHLORO-1-NAPTHALENESULFONAMIDE HYDROCHLORIDE] was tested. Which IC50 [3] did it give?
A: The IC50 was 12 µM.

Q: And the inhibition [1]?
A: The inhibition was 46.8%.

Q: What does the source list for CCN(CC)CCCC(C)Nc1c2ccc(Cl)cc2nc2ccc(OC)cc12 (configuration not stated) [QUINACRINE]?
A: IC50 [3]: 3.3 µM; inhibition [1]: 73.3%

Q: How did the IC50 [3] turn out when CN(C)CC/C=C1/c2ccccc2Sc2ccc(Cl)cc21 [CHLORPROTHIXENE] was run?
A: Its IC50 is < 10 µM.

Q: And the inhibition [1]?
A: Its inhibition is 55.2%.
